Source: ChEMBL document CHEMBL3046768, “New antiepileptic agents: structureactivity relationships” (Med Chem Res, 2012)

Legend:
Rattus norvegicus [1] = assay: Anticonvulsant activity in ip dosed Rattus norvegicus (rat) assessed as inhibition of subcutaneous pentylene tetrazole-induced seizure; format: functional
Rattus norvegicus [2] = assay: Anticonvulsant activity in ip dosed Rattus norvegicus (rat) assessed as inhibition of maximal electroshock-induced seizure; format: functional
Rattus norvegicus [3] = assay: Protective index, ratio of TD50 for ip dosed Rattus norvegicus (rat) to ED50 for ip dosed rat assessed as inhibition of maximal electroshock-induced seizure; format: functional
Mus musculus [4] = species on record: Mus musculus; assay: Anticonvulsant activity in Mus musculus (mouse) assessed as inhibition of maximal electroshock-induced seizure; format: functional
Rattus norvegicus [5] = species on record: Rattus norvegicus; assay: Anticonvulsant activity in Rattus norvegicus (rat) assessed as inhibition of maximal electroshock-induced seizure; format: functional
Rattus norvegicus [6] = assay: Protective index, ratio of TD50 for po dosed Rattus norvegicus (rat) to ED50 for anticonvulsant activity in po dosed rat assessed as inhibition of maximal electroshock-induced seizure; format: functional
[7] = Toxicity in po dosed maximal electroshock-induced seizure Rattus norvegicus (rat) model; format: organism-based; conditions: in vivo
[8] = target: T1, 5-hydroxytryptamine receptor 2C (Homo sapiens) (UniProt P28335); assay: (§1) Agonist activity at Homo sapiens (human) 5-HT2C receptor assessed as 5-HT-induced calcium mobilization by cell based assay; format: functional
T1 sequence (whole entry): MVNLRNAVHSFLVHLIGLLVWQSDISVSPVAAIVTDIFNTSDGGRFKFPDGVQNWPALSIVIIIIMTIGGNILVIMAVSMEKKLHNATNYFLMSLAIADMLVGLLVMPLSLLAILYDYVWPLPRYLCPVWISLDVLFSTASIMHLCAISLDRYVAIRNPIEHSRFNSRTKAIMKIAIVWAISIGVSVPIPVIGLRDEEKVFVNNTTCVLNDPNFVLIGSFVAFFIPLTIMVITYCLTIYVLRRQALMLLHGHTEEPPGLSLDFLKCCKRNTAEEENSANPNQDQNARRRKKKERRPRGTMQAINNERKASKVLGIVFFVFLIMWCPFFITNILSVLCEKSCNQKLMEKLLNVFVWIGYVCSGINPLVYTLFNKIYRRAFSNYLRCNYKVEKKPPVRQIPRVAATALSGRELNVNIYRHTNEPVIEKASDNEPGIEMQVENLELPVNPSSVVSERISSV

Mus musculus [9] = assay: Anticonvulsant activity in ip dosed Mus musculus (mouse) assessed as inhibition of maximal electroshock-induced seizure; format: functional; conditions: for ED50: Mus musculus, ip
[10] = target: T2, 5-hydroxytryptamine receptor 2C (Homo sapiens, UniProt P28335); assay: Agonist activity at Homo sapiens (human) 5-HT2C receptor
T2 sequence (P28335 whole entry): T1 sequence (whole entry)

Mus musculus [11] = assay: Protective index, ratio of TD50 for ip dosed Mus musculus (mouse) to ED50 for ip dosed Mus musculus (mouse) assessed as inhibition of maximal electroshock-induced seizure; format: functional
Rattus norvegicus [12] = assay: Anticonvulsant activity in po dosed Rattus norvegicus (rat) assessed as inhibition of maximal electroshock-induced seizure after 1 hr; format: functional
Mus musculus [13] = assay: Anticonvulsant activity in ip dosed Mus musculus (mouse) assessed as inhibition of maximal electroshock-induced seizure after 1 hr; format: functional
Mus musculus [14] = assay: Anticonvulsant activity in ip dosed Mus musculus (mouse) assessed as inhibition of subcutaneous pentylene tetrazole-induced seizure; format: functional
Rattus norvegicus [15] = assay: Anticonvulsant activity in po dosed Rattus norvegicus (rat) assessed as inhibition of maximal electroshock-induced seizure after 4 hr; format: functional
[16] = Toxicity in ip dosed maximal electroshock-induced seizure Mus musculus (mouse) model; format: organism-based; conditions: in vivo
Mus musculus [17] = assay: Anticonvulsant activity in ip dosed Mus musculus (mouse) assessed as inhibition of subcutaneous metrazol-induced seizure; format: functional
[18] = target: 5-hydroxytryptamine receptor 2A (Homo sapiens) (UniProt P28223); assay: Agonist activity at Homo sapiens (human) 5-HT2A receptor assessed as 5-HT-induced phosphoinositide hydrolysis by cell based assay; set-up: scale not given: the % may be the effect or the level left
Rattus norvegicus [19] = assay: Anticonvulsant activity in po dosed Rattus norvegicus (rat) assessed as inhibition of maximal electroshock-induced seizure after 0.5 hr; format: functional
Mus musculus [20] = assay: Anticonvulsant activity in ip dosed Mus musculus (mouse) assessed as inhibition of maximal electroshock-induced seizure after 0.25 hr; format: functional
[21] = target: T2, 5-hydroxytryptamine receptor 2C; assay: Agonist activity at Homo sapiens (human) 5-HT2C receptor assessed as calcium mobilization by cell based assay; format: functional
[22] = target: T2, 5-hydroxytryptamine receptor 2C; assay: as §1; format: functional
[23] = Oral bioavailability in Rattus norvegicus (rat); format: ADME, organism-based; conditions: in vivo
Mus musculus [24] = species on record: Mus musculus; assay: Protective index, ratio of TD50 for Mus musculus (mouse) to […] for Mus musculus (mouse) assessed as inhibition of maximal electroshock-induced seizure; format: functional
Rattus norvegicus [25] = assay: Anticonvulsant activity in po dosed Rattus norvegicus (rat) assessed as inhibition of maximal electroshock-induced seizure after 5 hr; format: functional

Sequence of 5-hydroxytryptamine receptor 2A (Homo sapiens) (P28223 whole entry): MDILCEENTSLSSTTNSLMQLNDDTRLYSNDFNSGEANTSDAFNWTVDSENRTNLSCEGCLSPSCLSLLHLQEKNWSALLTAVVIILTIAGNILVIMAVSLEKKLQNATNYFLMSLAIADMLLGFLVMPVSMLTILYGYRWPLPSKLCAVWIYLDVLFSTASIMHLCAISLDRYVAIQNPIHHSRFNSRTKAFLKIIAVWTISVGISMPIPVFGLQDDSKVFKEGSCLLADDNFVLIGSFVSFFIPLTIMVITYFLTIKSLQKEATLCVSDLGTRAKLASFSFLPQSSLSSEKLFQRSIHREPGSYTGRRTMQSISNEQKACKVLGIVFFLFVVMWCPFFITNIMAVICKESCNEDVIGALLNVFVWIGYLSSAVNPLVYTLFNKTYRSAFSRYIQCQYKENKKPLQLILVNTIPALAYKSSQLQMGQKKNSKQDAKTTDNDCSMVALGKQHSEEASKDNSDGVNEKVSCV

O=C(NCc1ccccc1F)c1ccccn1 [PICOLINIC ACID FLUOROBENZYLAMIDE]
ED50 (Rattus norvegicus [1]): > 50 mg/kg | ED50 (Rattus norvegicus [2]): 14.7 mg/kg | Ratio TD50/ED50 (Rattus norvegicus [3]): <3.4

CC1(C)C(C(=O)NC(N)=O)C1(C)C [2,2,3,3-TETRAMETHYLCYCLOPROPANECARBONYLUREA]
ED50 (Mus musculus [4]): 90 mg/kg | ED50 (Rattus norvegicus [5]): 29 mg/kg

Cc1cc(NC2=CC(=O)C(C(=O)OC(C)(C)C)C(C)C2)no1 (stereo not drawn)
Ratio TD50/ED50 (Rattus norvegicus [6]): >17.8 | TD50 [7]: > 500 mg/kg

Cc1noc(C)c1COc1cc(F)c(COC(=O)N2[C@H](C)CNC[C@@H]2C)c(F)c1
Activity [8]: 91%

CCNc1nnc(-c2ccccc2O)s1
inhibition (INH) (Mus musculus [9]): 90%

CCOC(=O)C1C(=O)C=C(Nc2cc(C)on2)CC1C (stereo not drawn)
Ratio TD50/ED50 (Rattus norvegicus [6]): >49.6 | TD50 [7]: > 500 mg/kg

Oc1ccccc1-c1nnc(Nc2cccc(F)c2)s1
inhibition (INH) (Mus musculus [9]): 70%

Clc1ccc(-c2ccc(-c3cc4c5c(c3)[C@@H]3CNC[C@@H]3N5CCCS4)cc2)c(Cl)c1
EC50 [10]: 3 nM

CC(=O)NC(C)C(=O)NCc1ccccc1 (stereo not drawn)
Ratio TD50/ED50 (Mus musculus [11]): 5.9 | Ratio TD50/ED50 (Rattus norvegicus [6]): >20 | ED50 (Rattus norvegicus [12]): 48 mg/kg | ED50 (Mus musculus [13]): 77 mg/kg

CCCC(CCC)C(=O)[O-].[Na+] [VALPROATE SODIUM]
inhibition (INH) (Mus musculus [14]): 80%

O=C1NC(=O)C(c2ccccc2)(c2ccccc2)N1 [PHENYTOIN]
ED50 (Rattus norvegicus [15]): 30 mg/kg

COC(=O)C1C(=O)C=C(Nc2cc(C)on2)CC1C (stereo not drawn)
ED50 (Mus musculus [9]): 68.9 mg/kg | Ratio TD50/ED50 (Mus musculus [11]): >7.3 | TD50 [16]: > 500 mg/kg

O=C1NCCCCC1(O)c1ccccc1 (stereo not drawn)
ED50 (Mus musculus [17]): 74 mg/kg | ED50 (Mus musculus [9]): 63 mg/kg

CCc1cc2c(ccc3cnn(C[C@H](C)N)c32)o1
Activity [18]: 97%

C1CC2CNCCN3C2C(C1)[C@H]1CCC[C@H]13 (stereo partly drawn)
EC50 [10]: 76 nM

CC(=O)NN(C(=O)NCc1ccccc1)c1nccs1
Ratio TD50/ED50 (Mus musculus [11]): 5.4 | Ratio TD50/ED50 (Rattus norvegicus [6]): >40 | TD50 [7]: > 250 mg/kg | ED50 (Rattus norvegicus [19]): 6.2 mg/kg | ED50 (Mus musculus [20]): 22 mg/kg

Cc1c2n(c3c(C)c(Cl)ccc13)C(C)NCC2 (stereo not drawn)
EC50 [21]: 0.4 nM

CCOc1ccc2c(c1)c(C[C@H](C)N)c1n2CCC1
Activity [8]: 87% | EC50 [22]: 4 nM

C[C@H]1CN(c2ccc(C(F)(F)F)c3ccoc23)CCN1
bioavailability [23]: 83%

O=C1CC2(CCCC2)C(=O)N1OCc1ccccc1
PI (Mus musculus [24]): >4.5

CCC1(c2ccccc2)C(=O)NC(=O)NC1=O [PHENOBARBITAL]
ED50 (Rattus norvegicus [25]): 9.1 mg/kg | ED50 (Mus musculus [13]): 22 mg/kg
